Measured values published in publication PMC10150366, “Discovery of an In Vivo Chemical Probe for BCL6 Inhibition by Optimization of Tricyclic Quinolinones” (Journal of Medicinal Chemistry, 2023).

Legend:
Format in all cases: cell-based
GR [1] = target: T1, GR (Homo sapiens, UniProt P04150); test: SAFETYscan NHR Protein Interaction GR Agonist
T1 sequence (P04150 1-777): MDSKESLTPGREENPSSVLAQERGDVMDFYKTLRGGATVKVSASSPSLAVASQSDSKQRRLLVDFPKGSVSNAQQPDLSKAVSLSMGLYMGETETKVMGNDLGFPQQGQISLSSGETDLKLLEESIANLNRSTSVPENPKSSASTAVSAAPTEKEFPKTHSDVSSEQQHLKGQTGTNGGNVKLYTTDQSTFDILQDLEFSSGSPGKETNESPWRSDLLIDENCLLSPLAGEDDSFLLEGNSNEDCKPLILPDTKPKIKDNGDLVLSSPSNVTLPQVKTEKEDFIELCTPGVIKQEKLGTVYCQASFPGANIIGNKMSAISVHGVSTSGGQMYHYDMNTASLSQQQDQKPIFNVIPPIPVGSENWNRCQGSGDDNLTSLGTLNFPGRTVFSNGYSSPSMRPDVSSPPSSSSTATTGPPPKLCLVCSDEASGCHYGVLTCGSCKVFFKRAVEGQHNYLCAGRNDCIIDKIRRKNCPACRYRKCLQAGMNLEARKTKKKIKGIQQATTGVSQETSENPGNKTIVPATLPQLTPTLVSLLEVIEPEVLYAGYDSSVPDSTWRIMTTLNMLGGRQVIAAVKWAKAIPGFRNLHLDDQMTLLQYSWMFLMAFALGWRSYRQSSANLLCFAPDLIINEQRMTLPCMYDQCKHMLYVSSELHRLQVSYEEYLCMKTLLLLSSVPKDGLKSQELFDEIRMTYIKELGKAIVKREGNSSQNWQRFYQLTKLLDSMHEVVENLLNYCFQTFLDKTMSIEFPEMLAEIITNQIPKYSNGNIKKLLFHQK
From the text: (§1) Supplement jm3c00155_si_002.xlsx, sheet "SAFETYScan" | column: RC50 (uM); Max Response

OPRM1 = OPRM1 (Homo sapiens, UniProt P35372); test: SAFETYscan cAMP OPRM1 Agonist
Chain of OPRM1 (P35372 whole entry): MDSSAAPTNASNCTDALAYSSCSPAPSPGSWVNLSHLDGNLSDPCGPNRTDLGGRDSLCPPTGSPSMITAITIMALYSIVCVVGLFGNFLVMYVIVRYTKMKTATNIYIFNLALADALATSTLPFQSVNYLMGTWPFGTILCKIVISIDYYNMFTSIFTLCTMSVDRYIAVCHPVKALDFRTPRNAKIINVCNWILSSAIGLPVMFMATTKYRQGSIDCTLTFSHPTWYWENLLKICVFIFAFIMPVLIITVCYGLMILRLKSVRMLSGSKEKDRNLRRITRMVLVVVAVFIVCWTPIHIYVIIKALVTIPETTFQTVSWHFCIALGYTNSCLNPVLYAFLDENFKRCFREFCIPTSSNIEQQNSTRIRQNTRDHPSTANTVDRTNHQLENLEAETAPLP
From the text: as §1

CHRM1 [2] = target: T2, CHRM1 (Homo sapiens, UniProt P11229); test: SAFETYscan Calcium Flux CHRM1 Antagonist
T2 sequence (P11229 1-460): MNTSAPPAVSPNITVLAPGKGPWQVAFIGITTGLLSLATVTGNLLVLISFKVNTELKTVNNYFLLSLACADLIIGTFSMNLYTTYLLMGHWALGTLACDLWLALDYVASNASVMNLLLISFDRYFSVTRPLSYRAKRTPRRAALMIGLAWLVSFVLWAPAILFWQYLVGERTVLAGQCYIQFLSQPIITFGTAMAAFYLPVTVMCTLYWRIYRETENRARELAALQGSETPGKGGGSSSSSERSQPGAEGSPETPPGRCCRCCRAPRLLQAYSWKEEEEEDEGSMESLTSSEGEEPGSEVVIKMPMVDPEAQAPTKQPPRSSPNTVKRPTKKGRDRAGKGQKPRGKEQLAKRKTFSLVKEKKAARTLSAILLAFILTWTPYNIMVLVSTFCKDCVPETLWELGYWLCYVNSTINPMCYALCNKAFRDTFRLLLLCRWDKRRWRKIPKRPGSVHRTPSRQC
From the text: as §1

GR [3] = target: T1, GR; test: SAFETYscan NHR Protein Interaction GR Antagonist
From the text: as §1

ADRA1A = target: T3, ADRA1A (Homo sapiens, UniProt P35348); test: SAFETYscan Calcium Flux ADRA1A Antagonist
T3 sequence (P35348 1-466): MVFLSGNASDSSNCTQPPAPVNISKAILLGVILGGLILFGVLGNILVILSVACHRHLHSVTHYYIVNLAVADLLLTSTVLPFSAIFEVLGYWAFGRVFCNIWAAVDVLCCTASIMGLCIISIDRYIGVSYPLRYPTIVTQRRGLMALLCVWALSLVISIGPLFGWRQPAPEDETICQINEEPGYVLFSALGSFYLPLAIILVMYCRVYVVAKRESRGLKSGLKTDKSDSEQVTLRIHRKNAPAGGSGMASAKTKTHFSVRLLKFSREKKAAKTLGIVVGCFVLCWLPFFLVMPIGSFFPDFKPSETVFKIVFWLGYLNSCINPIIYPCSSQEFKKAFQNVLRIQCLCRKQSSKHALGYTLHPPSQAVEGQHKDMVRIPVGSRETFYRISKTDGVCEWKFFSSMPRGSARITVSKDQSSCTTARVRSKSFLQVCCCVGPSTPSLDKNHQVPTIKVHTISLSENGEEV
From the text: as §1

CNR2 = CNR2 (Homo sapiens, UniProt P34972); test: SAFETYscan cAMP CNR2 Antagonist
Chain of CNR2 (P34972 whole entry): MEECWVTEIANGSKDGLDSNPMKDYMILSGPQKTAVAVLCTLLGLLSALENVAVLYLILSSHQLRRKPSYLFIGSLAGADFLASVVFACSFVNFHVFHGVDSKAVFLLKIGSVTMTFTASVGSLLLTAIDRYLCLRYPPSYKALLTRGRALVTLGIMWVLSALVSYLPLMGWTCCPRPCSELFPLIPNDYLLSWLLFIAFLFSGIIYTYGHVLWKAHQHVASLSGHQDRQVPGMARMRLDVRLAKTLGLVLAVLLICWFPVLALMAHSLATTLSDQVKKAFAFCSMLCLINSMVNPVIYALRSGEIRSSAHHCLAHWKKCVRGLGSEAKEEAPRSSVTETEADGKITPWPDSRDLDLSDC
From the text: as §1

CHRM2 = target: T4, CHRM2 (Homo sapiens, UniProt P08172); test: SAFETYscan cAMP CHRM2 Agonist
T4 sequence (P08172 1-466): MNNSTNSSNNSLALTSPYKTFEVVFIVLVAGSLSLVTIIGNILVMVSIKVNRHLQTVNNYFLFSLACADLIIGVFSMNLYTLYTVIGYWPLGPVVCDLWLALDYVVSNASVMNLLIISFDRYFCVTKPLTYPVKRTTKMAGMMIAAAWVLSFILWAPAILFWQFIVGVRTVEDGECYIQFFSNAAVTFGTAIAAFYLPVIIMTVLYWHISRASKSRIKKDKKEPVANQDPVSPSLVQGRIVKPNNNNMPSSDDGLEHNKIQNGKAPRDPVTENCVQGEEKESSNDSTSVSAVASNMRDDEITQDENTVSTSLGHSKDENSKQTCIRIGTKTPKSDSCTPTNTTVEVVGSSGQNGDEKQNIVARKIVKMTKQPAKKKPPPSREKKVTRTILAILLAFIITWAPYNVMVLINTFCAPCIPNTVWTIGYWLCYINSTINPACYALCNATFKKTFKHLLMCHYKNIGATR
From the text: Supplement jm3c00155_si_002.xlsx, sheet "SAFETYScan" | column: RC50 (uM); Hill; Max Response

CHRM1 [4] = target: T2, CHRM1; test: SAFETYscan Calcium Flux CHRM1 Agonist
From the text: as §1

CNR1 = CNR1 (Homo sapiens, UniProt P21554); test: SAFETYscan cAMP CNR1 Agonist
Chain of CNR1 (P21554 whole entry): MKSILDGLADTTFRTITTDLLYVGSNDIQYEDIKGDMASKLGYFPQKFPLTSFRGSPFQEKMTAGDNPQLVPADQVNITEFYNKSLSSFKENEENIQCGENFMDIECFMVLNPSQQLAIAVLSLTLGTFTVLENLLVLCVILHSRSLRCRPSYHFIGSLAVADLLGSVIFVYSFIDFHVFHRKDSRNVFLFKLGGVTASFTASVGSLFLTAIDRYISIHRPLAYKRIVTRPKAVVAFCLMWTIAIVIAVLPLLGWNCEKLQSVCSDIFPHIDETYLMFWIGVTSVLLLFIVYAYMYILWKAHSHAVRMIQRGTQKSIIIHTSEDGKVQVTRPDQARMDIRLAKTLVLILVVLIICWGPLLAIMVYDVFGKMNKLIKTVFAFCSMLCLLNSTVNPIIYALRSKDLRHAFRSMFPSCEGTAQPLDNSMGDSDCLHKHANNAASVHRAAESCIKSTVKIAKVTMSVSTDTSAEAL
From the text: as §1

GABAA = GABAA (Homo sapiens, UniProt P14867+P18507+P47870); test: SAFETYscan Ion Channel GABAA Opener
Chain of GABAA (P14867 28-456): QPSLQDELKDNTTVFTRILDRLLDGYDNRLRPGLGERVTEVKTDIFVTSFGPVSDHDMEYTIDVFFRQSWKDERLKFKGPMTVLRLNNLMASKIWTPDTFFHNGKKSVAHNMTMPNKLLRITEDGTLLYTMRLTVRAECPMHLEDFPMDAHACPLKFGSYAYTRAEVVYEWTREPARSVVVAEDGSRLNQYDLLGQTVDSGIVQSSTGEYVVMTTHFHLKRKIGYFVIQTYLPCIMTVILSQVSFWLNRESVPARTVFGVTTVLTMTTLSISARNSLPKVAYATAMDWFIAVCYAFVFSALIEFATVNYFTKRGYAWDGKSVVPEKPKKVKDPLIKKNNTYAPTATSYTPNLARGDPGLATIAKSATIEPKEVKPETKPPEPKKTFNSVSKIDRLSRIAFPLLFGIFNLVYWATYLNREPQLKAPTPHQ
Chain of GABAA (P47870 26-512): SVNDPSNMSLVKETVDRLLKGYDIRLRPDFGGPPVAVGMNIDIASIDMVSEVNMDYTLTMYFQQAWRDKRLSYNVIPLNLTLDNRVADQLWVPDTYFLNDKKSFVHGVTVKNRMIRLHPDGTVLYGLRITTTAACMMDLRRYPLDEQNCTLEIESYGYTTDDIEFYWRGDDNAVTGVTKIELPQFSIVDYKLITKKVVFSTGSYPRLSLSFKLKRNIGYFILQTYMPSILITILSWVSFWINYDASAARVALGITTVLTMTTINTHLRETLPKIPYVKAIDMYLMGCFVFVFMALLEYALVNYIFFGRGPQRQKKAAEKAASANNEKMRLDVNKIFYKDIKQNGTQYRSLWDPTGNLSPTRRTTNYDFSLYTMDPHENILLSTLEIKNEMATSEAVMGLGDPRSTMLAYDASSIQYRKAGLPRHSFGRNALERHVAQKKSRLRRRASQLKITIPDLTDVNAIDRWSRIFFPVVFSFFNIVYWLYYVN
Chain of GABAA (P18507 40-475): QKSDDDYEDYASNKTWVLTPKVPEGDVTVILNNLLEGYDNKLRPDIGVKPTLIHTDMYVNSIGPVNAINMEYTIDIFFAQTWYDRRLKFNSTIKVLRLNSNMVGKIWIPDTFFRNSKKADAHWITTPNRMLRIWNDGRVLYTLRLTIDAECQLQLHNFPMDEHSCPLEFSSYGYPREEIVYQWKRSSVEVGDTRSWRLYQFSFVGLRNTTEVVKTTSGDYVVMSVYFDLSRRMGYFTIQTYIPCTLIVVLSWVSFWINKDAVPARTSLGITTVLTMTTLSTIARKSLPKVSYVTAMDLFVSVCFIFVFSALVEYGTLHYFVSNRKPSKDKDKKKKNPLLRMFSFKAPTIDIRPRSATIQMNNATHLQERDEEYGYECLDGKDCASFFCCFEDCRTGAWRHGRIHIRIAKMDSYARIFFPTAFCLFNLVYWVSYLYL
From the text: as §1

KvLQT1/minK = KvLQT1/minK (Homo sapiens, UniProt P51787); test: SAFETYscan Ion Channel KvLQT1/minK Blocker
From the text: as §1

Cn1c(=O)c2c(c3cc(Nc4ccnc(F)c4Cl)ccc31)N[C@@H](C1CC1)C(F)(F)CO2 [compound 17, (S)-10-((3-chloro-2-fluoropyridin-4-yl)amino)-2-cyclopropyl-3,3-difluoro-7-methyl-1,2,3,4-tetrahydro-[1,4]oxazepino[2,3-c]quinolin-6(7H)-one]
Emax (GR [1]; read-out: Max Response): 0% | EC50 (GR [1]; read-out: RC50 (EC50)): > 10 µM | EC50 (OPRM1): > 10 µM | Emax (OPRM1; OPRM1, cAMP, Agonist, read-out: Max Response): 13.3% | IC50 (CHRM1 [2]): > 10 µM | Emax (CHRM1 [2]; CHRM1, Calcium Flux, Antagonist, read-out: Max Response): 1.21% | Emax (GR [3]; read-out: Max Response): 12.3% | IC50 (GR [3]; read-out: RC50 (IC50)): > 10 µM | IC50 (ADRA1A): > 10 µM | Emax (ADRA1A; ADRA1A, Calcium Flux, Antagonist, read-out: Max Response): 0% | IC50 (CNR2): > 10 µM | Emax (CNR2; CNR2, cAMP, Antagonist, read-out: Max Response): 0% | EC50 (CHRM2): 2.22 µM | Hill (CHRM2; CHRM2, cAMP, Agonist): 1.63 | Emax (CHRM2; CHRM2, cAMP, Agonist, read-out: Max Response): 92.6% | EC50 (CHRM1 [4]): > 10 µM | Emax (CHRM1 [4]; CHRM1, Calcium Flux, Agonist, read-out: Max Response): 1.44% | EC50 (CNR1): > 10 µM | Emax (CNR1; CNR1, cAMP, Agonist, read-out: Max Response): 27.3% | EC50 (GABAA): > 10 µM | Emax (GABAA; GABAA, Ion Channel, Opener, read-out: Max Response): 1.24% | Emax (KvLQT1/minK; read-out: Max Response): 12.6% | IC50 (KvLQT1/minK; read-out: RC50 (IC50)): > 10 µM
